Results published in patent US10195156B2, “Compounds and compositions for intracellular delivery of agents” (ModernaTX, Inc., priority 2015, dated 2019).

Legend:
[1] = tested on: luciferase (Luc) mRNA expression; test: Expression of Luc induced by sample formulations, whole-body bioluminescence after intravenous administration; assay type: in vivo; settings: mice, i.v., 0.5 mg/kg; for Total Flux 3 hours / Total Flux 6 hours / Total Flux 24 hours: Table 2
Summary of the method: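 Read-out is whole-body bioluminescence at 3, 6 and 24 h after a single intravenous dose of 0.5 mg/kg Luc mRNA in nanoparticle formulations. Groups of n=6 mice; PBS and standard MC3 formulation as references.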

IL-6 = test: Cytokine production induced by sample formulations: IL-6; assay type: in vivo; settings: Table 4; mice, i.v., 0.5 mpk, 6 hours; in pg/mL (unit assumed)
Summary of the method: (§1)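 Cytokine levels were quantified at 6 hours in mice given the nanoparticle compositions i.v. at 0.5 mpk. MC3 standard formulation and PBS served as comparators.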

IP-10 = test: Cytokine production induced by sample formulations: IP-10; assay type: in vivo; settings: mice, i.v., 0.5 mpk, 6 hours; for IP-10: Table 4, in pg/mL (unit assumed)
Summary of the method: as §1

[2] = pKa of nanoparticle compositions; assay type: physicochemical; settings: Table 1
[3] = Encapsulation efficiency of RNA (QUANT-IT RIBOGREEN RNA assay); assay type: physicochemical; settings: for EE (%): Table 1; for encapsulation efficiency, rank within the named table (in words): comparison amongst compositions
Summary of the method: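 RiboGreen fluorescence (ex ~480, em ~520 nm) measured after 15 min at 37 °C on samples at ~5 μg/mL in TE, pH 7.5, ± 2% Triton X-100 solution. After blank subtraction, free RNA is given as intact-sample signal divided by disrupted-sample signal.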

[4] = Particle size and polydispersity index of nanoparticle compositions (Zetasizer Nano ZS); assay type: physicochemical; settings: Table 1
Summary of the method: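 Measured in 1×PBS by Zetasizer Nano ZS.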

[5] = tested on: modified luciferase expression; test: Expression of Luc in different organs (liver, lung, spleen, femur) 6 hours after intravenous administration; assay type: in vivo; settings: Table 3, mice, i.v., 0.5 mpk
Procedure: The efficacy of the nanoparticle compositions presented in Tables 1, 1a, 17-1, 19-1, 20-1 and 21-1 was further evaluated by measuring the expression of modified luciferase in the liver, lung, spleen, and femur upon administration of a given composition. Formulations were administered intravenously to mice (n=3) at a dosage of 0.5 mpk and bioluminescence measured after 6 hours. The standard MC3 formulation and a PBS control were also tested.

[6] = Lipid clearance: % dose remaining in mouse liver 6 h and 24 h after administration of nanoparticle compositions; assay type: in vivo, CD-1 mice; settings: CD-1 mice
Text: In contrast, hEPO expression in rats induced by administration of a nanoparticle composition including a compound according to one of formulae (I), (Ia1)-(Ia6), (Ib), (II), (IIa), (III), and (IIIa) was substantially […] than that measured for MC3. […] Table 7c and 7d show additional protein expressions and clearance data from compositions with various compounds disclosed herein as compared to with MC3.

[7] = * lipid:DSPC:Chol:PEG-DMG 50:10:38.5:1.5
[8] = * formulated with lipid:DSPC:Chol:PEG-DMG 50:10:38.5:1.5
[9] = rows without footnote mark (lipid:DOPE:cholesterol:PEG-DMG 40:20:38.5:1.5, Luc mRNA; MC3 standard formulation)

Compound | Total Flux 3 hours [1] | Total Flux 6 hours [1] | Total Flux 24 hours ([1]; 24 hours) | IL-6 (IL-6) | IP-10 (IP-10) | pKa [2, 7] | EE (%) [3, 7] | encapsulation efficiency, rank within the named table (in words) [3] | Size (nm) [4, 8] | PDI [4, 7] | Total Flux Liver [5] | Total Flux Lung [5] | Total Flux Spleen [5] | pKa ([2]; rows without footnote mark) | % Dose remaining 6 h CD-1 mice [6] | % Dose remaining 24 h CD-1 mice [6] | EE (%) ([3]; rows without footnote mark) | PDI ([4]; rows without footnote mark) | Size (nm) [4, 9] | other results
CCCCCCCCCN(CCCCCCCCC)CCN(CCCCCCCCC)CCN1CCNCC1 [Compound 36, N^1,N^1,N^2-Trinonyl-N^2-(2-(piperazin-1-yl)ethyl)ethane-1,2-diamine] | 6.90E+05 | 3.93E+05 | 1.68E+05 | 41 | 118 | 7.81 | 100.2% | highest | 100.8 nm | 0.110 | 5.85E+04 | 2.74E+04 | 1.24E+05 | – | – | – | – | – | – | total flux after 24 hours, rank within the named table (in words) ([1]; 24 hours): lowest flux after 24 hours; IP-10 induction, rank or comparison with IL-6 (in words) (IP-10): lowest IP-10 expression
CCCCCCCC/C=C\CCCCCCCCN(CCCCCCCC/C=C\CCCCCCCC)CCN(CCCCCCCC/C=C\CCCCCCCC)CCN1CCNCC1 [Compound 40, N^1,N^1,N^2-Tri((Z)-octadec-9-en-1-yl)-N^2-(2-(piperazin-1-yl)ethyl)ethane-1,2-diamine] | 1.24E+08 | 1.07E+07 | 5.62E+06 | 134 | 919 | 6.78 | 100.0% | highest | 78.9 nm | 0.210 | 1.33E+06 | 1.42E+05 | 5.68E+05 | – | – | – | – | – | – | –
CCCCC/C=C\C/C=C\CCCCCCCCN(CCCCCCCC/C=C\C/C=C\CCCCC)CCN(CCCCCCCC/C=C\C/C=C\CCCCC)CCN1CCNCC1 [Compound 41, N^1,N^1,N^2-Tri((9Z,12Z)-octadeca-9,12-dien-1-yl)-N^2-(2-(piperazin-1-yl)ethyl)ethane-1,2-diamine] | 4.06E+07 | 2.04E+07 | 6.05E+07 | 116 | 350 | 7.02 | 99.9% | highest | 69.0 nm | 0.239 | 3.00E+06 | 1.34E+05 | 2.13E+06 | – | – | – | – | – | – | –
CCCCCCCCCN(CCCCCCCCC)CCN(CCCCCCCCC)CC(=O)N1CC2CC1CN2C(=O)CN(CCCCCCCCC)CCCCCCCCC (centres unmarked) [Compound 42, 2-(Dinonylamino)-1-(5-(N-(2-(dinonylamino)ethyl)-N-nonylglycyl)-2,5-diazabicyclo[2.2.1]heptan-2-yl)ethan-1-one] | – | 4.99E+10 | – | – | – | – | – | – | – | – | 5.53E+09 | – | 2.29E+08 | 6.77 | 58% | 53% | 97.1% | 0.190 | 116.4 nm | –
CCCCCCCCCCCCN(CCCCCCCCCCCC)CCN(CCCCCCCCCCCC)CC(=O)N1CC2CC1CN2C(=O)CN(CCCCCCCCC)CCCCCCCCC (centres unmarked) [Compound 43, 2-((2-(Didodecylamino)ethyl)(dodecyl)amino)-1-(5-(dinonylglycyl)-2,5-diazabicyclo[2.2.1]heptan-2-yl)ethan-1-one] | – | 4.54E+09 | – | – | – | – | – | – | – | – | 2.60E+08 | – | 4.52E+07 | 6.72 | 69% | 64% | 99.1% | 0.220 | 99.0 nm | –
CCCCCCCCCN(CCCCCCCCC)CCN(CCCCCCCCC)CC(=O)N1CCN(C(=O)CN(CCCCCCCCC)CCCCCCCC(=O)OC)CC1 [Compound 44, Methyl 8-((2-(4-(N-(2-(dinonylamino)ethyl)-N-nonylglycyl)piperazin-1-yl)-2-oxoethyl)(nonyl)amino)octanoate] | – | 1.07E+10 | – | – | – | – | – | – | – | – | 1.11E+09 | – | 1.19E+08 | 6.82 | <1% | <1% | 89.5% | 0.190 | 94.9 nm | –
CCCCCCCCCN(CCCCCCCC(=O)OC)CCN(CCCCCCCCC)CC(=O)N1CCN(C(=O)CN(CCCCCCCCC)CCCCCCCCC)CC1 [Compound 46, Methyl 8-((2-((2-(4-(dinonylglycyl)piperazin-1-yl)-2-oxoethyl)(nonyl)amino)ethyl)(nonyl)amino)octanoate] | – | 5.26E+09 | – | – | – | – | – | – | – | – | 3.84E+08 | – | 4.35E+07 | 6.77 | 1% | <1% | 97.5% | 0.160 | 81.8 nm | –
CCCCCCCCCN(CCCCCCCCC)CCN(CCCCCCCC(=O)OC)CC(=O)N1CCN(C(=O)CN(CCCCCCCCC)CCCCCCCCC)CC1 [Compound 47, Methyl 8-((2-(dinonylamino)ethyl)(2-(4-(dinonylglycyl)piperazin-1-yl)-2-oxoethyl)amino)octanoate] | – | 2.64E+09 | – | – | – | – | – | – | – | – | 4.95E+08 | – | 1.42E+08 | 6.82 | 1% | <1% | 53.1% | 0.180 | 89.8 nm | –
CCCCCCCCCN(CCCCCCCC(=O)OC)CCN(CCCCCCCC(=O)OC)CC(=O)N1CCN(C(=O)CN(CCCCCCCCC)CCCCCCCCC)CC1 [Compound 48, Methyl 8-((2-(4-(dinonylglycyl)piperazin-1-yl)-2-oxoethyl)(2-((8-methoxy-8-oxooctyl)(nonyl)amino)ethyl)amino)octanoate] | – | 1.05E+08 | – | – | – | – | – | – | – | – | 1.04E+07 | – | 1.50E+07 | 6.99 | <1% | <1% | 79.3% | 0.099 | 111.4 nm | –
